# Patent US20260015358A1, “BICYCLIC DERIVATIVES, COMPOSITIONS AND USES THEREOF” (Danatlas Pharmaceuticals Co., Ltd., priority 2023, published 2026)
# Experiments:
# [1] = biological target: T1, WRN [UniPro: Q14191 (WRN_HUMAN), N500-C946] (Homo sapiens (Human), UniProt Q14191); assay: WRN ATPase assay (ADP-Glo); type: biochemical; settings: WRN enzymatic activity assay
# [2] = biological target: T1, WRN [UniPro: Q14191 (WRN_HUMAN), N500-C946]; assay: WRN unwinding assay (FORKF DNA, fluorescence); type: biochemical; settings: Table 14
# T1 sequence (Q14191 500-946): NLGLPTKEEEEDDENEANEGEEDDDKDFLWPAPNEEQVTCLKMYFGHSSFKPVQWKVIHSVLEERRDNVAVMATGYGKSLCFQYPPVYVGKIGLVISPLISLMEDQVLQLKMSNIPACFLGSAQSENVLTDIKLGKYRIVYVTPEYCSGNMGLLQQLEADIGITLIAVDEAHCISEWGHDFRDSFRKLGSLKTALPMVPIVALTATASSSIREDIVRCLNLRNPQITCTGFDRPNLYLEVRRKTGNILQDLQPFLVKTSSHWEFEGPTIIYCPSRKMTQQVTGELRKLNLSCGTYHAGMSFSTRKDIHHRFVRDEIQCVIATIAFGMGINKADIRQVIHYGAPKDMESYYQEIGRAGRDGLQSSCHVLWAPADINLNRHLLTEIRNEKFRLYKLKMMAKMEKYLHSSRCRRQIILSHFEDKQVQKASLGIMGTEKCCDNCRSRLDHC
SMILES,IC50 [1] [nM],IC50 [2] [nM]
"CCc1c(N2CCN(C(=O)CNC(=O)N3CCc4ccccc43)CC2)c(=O)n2nc(C3=CCOCC3)nc2n1CC(=O)Nc1ccc(C(F)(F)F)cc1Cl [Example 182, N-(2-(4-(4-(2-((2-Chloro-4-(trifluoromethyl)phenyl)amino)-2-oxoethyl)-2-(3,6-dihydro-2H-pyran-4-yl)-5-ethyl-7-oxo-4,7-dihydro-[1,2,4]triazolo[1,5-a]pyrimidin-6-yl)piperazin-1-yl)-2-oxoethyl) indoline-1-carboxamide]",< 100,< 100
"CCc1c(N2CCN(C(=O)CNC(=O)c3ccccc3F)CC2)c(=O)n2nc(C3=CCOCC3)nc2n1CC(=O)Nc1ccc(C(F)(F)F)cc1Cl [Example 97, N-(2-(4-(4-(2-((2-Chloro-4-(trifluoromethyl)phenyl)amino)-2-oxoethyl)-2-(3,6-dihydro-2H-pyran-4-yl)-5-ethyl-7-oxo-4,7-dihydro-[1,2,4]triazolo[1,5-a]pyrimidin-6-yl)piperazin-1-yl)-2-oxoethyl)-2-fluorobenzamide]",< 100,< 100
"CCc1c(N2CCN(C(=O)CNC(=O)c3cnon3)CC2)c(=O)n2nc(C3=CCOCC3)nc2n1CC(=O)Nc1ccc(C(F)(F)F)cc1Cl [Example 384, N-(2-(4-(4-(2-((2-Chloro-4-(trifluoromethyl)phenyl)amino)-2-oxoethyl)-2-(3,6-dihydro-2H-pyran-4-yl)-5-ethyl-7-oxo-4,7-dihydro-[1,2,4]triazolo[1,5-a]pyrimidin-6-yl)piperazin-1-yl)-2-oxoethyl)-1,2,5-oxadiazole-3-carboxamide]",< 100,< 100
"CCc1c(N2CCN(C(=O)CNC(=O)c3ccc(OC)cc3F)CC2)c(=O)n2nc(C3=CCOCC3)nc2n1CC(=O)Nc1ccc(C(F)(F)F)cc1Cl [Example 379, N-(2-(4-(4-(2-((2-Chloro-4-(trifluoromethyl)phenyl)amino)-2-oxoethyl)-2-(3,6-dihydro-2H-pyran-4-yl)-5-ethyl-7-oxo-4,7-dihydro-[1,2,4]triazolo[1,5-a]pyrimidin-6-yl)piperazin-1-yl)-2-oxoethyl)-2-fluoro-4-methoxybenzamide]",< 100,< 100
"CCc1c(N2CCN(C(=O)C3CCC(=O)N3)CC2)c(=O)n2nc(C3=CCOCC3)nc2n1CC(=O)Nc1ccc(C(F)(F)F)cc1Cl (centres unmarked) [Example 66, N-(2-Chloro-4-(trifluoromethyl)phenyl)-2-(2-(3,6-dihydro-2H-pyran-4-yl)-5-ethyl-7-oxo-6-(4-(5-oxopyrrolidine-2-carbonyl)piperazin-1-yl)-[1,2,4]triazolo[1,5-a]pyrimidin-4(7H)-yl)acetamide]",> 1000,> 1000
"CCc1c(N2CCN(C(=O)c3cccc(=O)[nH]3)CC2)c(=O)n2nc(C3=CCOCC3)nc2n1CC(=O)Nc1ccc(C(F)(F)F)cc1Cl [Example 78, N-(2-Chloro-4-(trifluoromethyl)phenyl)-2-(2-(3,6-dihydro-2H-pyran-4-yl)-5-ethyl-7-oxo-6-(4-(6-oxo-1,6-dihydropyridine-2-carbonyl)piperazin-1-yl)-[1,2,4]triazolo[1,5-a]pyrimidin-4(7H)-yl)acetamide]",< 100,< 100
"CCc1c(N2CCN(C(=O)c3[nH]ncc3C(F)(F)F)CC2)c(=O)n2nc(C3=CCOCC3)nc2n1CC(=O)Nc1ccc(C(F)(F)F)cc1Cl [Example 19, N-(2-Chloro-4-(trifluoromethyl)phenyl)-2-(2-(3,6-dihydro-2H-pyran-4-yl)-5-ethyl-7-oxo-6-(4-(4-(trifluoromethyl)-1H-pyrazole-5-carbonyl)piperazin-1-yl)-[1,2,4]triazolo[1,5-a]pyrimidin-4(7H)-yl)acetamide]",> 1000,> 1000
"CCc1c(N2CCN(C(=O)CNC(=O)c3ccc(F)c(O)c3)CC2)c(=O)n2nc(C3=CCOCC3)nc2n1CC(=O)Nc1ccc(C(F)(F)F)cc1Cl [Example 292, N-(2-(4-(4-(2-((2-Chloro-4-(trifluoromethyl)phenyl)amino)-2-oxoethyl)-2-(3,6-dihydro-2H-pyran-4-yl)-5-ethyl-7-oxo-4,7-dihydro-[1,2,4]triazolo[1,5-a]pyrimidin-6-yl)piperazin-1-yl)-2-oxoethyl)-4-fluoro-3-hydroxybenzamide]",< 100,< 100
"CCc1c(N2CCN(C(=O)CNC(=O)c3cccc4nonc34)CC2)c(=O)n2nc(C3=CCOCC3)nc2n1CC(=O)Nc1ccc(C(F)(F)F)cc1Cl [Example 383, N-(2-(4-(4-(2-((2-Chloro-4-(trifluoromethyl)phenyl)amino)-2-oxoethyl)-2-(3,6-dihydro-2H-pyran-4-yl)-5-ethyl-7-oxo-4,7-dihydro-[1,2,4]triazolo[1,5-a]pyrimidin-6-yl)piperazin-1-yl)-2-oxoethyl)benzo[c][1,2,5]oxadiazole-4-carboxamide]",< 100,< 100
"CCc1c(N2CCN(C(=O)CNC(=O)CC3CC3)CC2)c(=O)n2nc(C3=CCOCC3)nc2n1CC(=O)Nc1ccc(C(F)(F)F)cc1Cl [Example 275, N-(2-Chloro-4-(trifluoromethyl)phenyl)-2-(6-(4-((2-cyclopropylacetyl)glycyl)piperazin-1-yl)-2-(3,6-dihydro-2H-pyran-4-yl)-5-ethyl-7-oxo-[1,2,4]triazolo[1,5-a]pyrimidin-4(7H)-yl)acetamide]",< 100,< 100
"CCc1c(N2CCN(C(=O)CNC(=O)c3cc(OC)ccc3F)CC2)c(=O)n2nc(C3=CCOCC3)nc2n1CC(=O)Nc1ccc(C(F)(F)F)cc1Cl [Example 378, N-(2-(4-(4-(2-((2-Chloro-4-(trifluoromethyl)phenyl)amino)-2-oxoethyl)-2-(3,6-dihydro-2H-pyran-4-yl)-5-ethyl-7-oxo-4,7-dihydro-[1,2,4]triazolo[1,5-a]pyrimidin-6-yl)piperazin-1-yl)-2-oxoethyl)-2-fluoro-5-methoxybenzamide]",< 100,< 100
"CCc1c(N2CCN(C(=O)c3nc4ccccc4cc3N)CC2)c(=O)n2nc(C3=CCOCC3)nc2n1CC(=O)Nc1ccc(C(F)(F)F)cc1Cl [Example 307, 2-(6-(4-(3-Aminoquinoline-2-carbonyl)piperazin-1-yl)-2-(3,6-dihydro-2H-pyran-4-yl)-5-ethyl-7-oxo-[1,2,4]triazolo[1,5-a]pyrimidin-4(7H)-yl)-N-(2-chloro-4 (trifluoromethyl)phenyl)acetamide]",100 to 1000,< 100

# Other lines, results leading:
IC50 [1] [nM],IC50 [2] [nM],SMILES
100 to 1000,100 to 1000,"CCc1c(N2CCN(C(=O)CNC(=O)N(C)C)CC2)c(=O)n2nc(C3=CCOCC3)nc2n1CC(=O)Nc1ccc(C(F)(F)F)cc1Cl [Example 173, N-(2-Chloro-4-(trifluoromethyl)phenyl)-2-(2-(3,6-dihydro-2H-pyran-4-yl)-6-(4-((dimethylcarbamoyl)glycyl)piperazin-1-yl)-5-ethyl-7-oxo-[1,2,4]triazolo[1,5-a]pyrimidin-4(7H)-yl)acetamide]"
< 100,< 100,"CCc1c(N2CCN(C(=O)c3ncc4c(ccn4C)c3O)CC2)c(=O)n2nc(C3=CCOCC3)nc2n1CC(=O)Nc1ccc(C(F)(F)F)cc1Cl [Example 205, N-(2-Chloro-4-(trifluoromethyl)phenyl)-2-(2-(3,6-dihydro-2H-pyran-4-yl)-5-ethyl-6-(4-(4-hydroxy-1-methyl-1H-pyrrolo[2,3-c]pyridine-5-carbonyl)piperazin-1-yl)-7-oxo-[1,2,4]triazolo[1,5-a]pyrimidin-4(7H)-yl)acetamide]"
100 to 1000,< 100,"CCc1c(N2CCN(C(=O)c3sc4cnccc4c3N)CC2)c(=O)n2nc(C3=CCOCC3)nc2n1CC(=O)Nc1ccc(C(F)(F)F)cc1Cl [Example 6, 2-(6-(4-(3-Aminothieno[2,3-c]pyridine-2-carbonyl)piperazin-1-yl)-2-(3,6-dihydro-2H-pyran-4-yl)-5-ethyl-7-oxo-[1,2,4]triazolo[1,5-a]pyrimidin-4(7H)-yl)-N-(2-chloro-4-(trifluoromethyl)phenyl)acetamide]"
< 100,< 100,"CCc1c(N2CCN(C(=O)CNC(=O)c3cc(C)ns3)CC2)c(=O)n2nc(C3=CCOCC3)nc2n1CC(=O)Nc1ccc(C(F)(F)F)cc1Cl [Example 122, N-(2-(4-(4-(2-((2-Chloro-4-(trifluoromethyl)phenyl)amino)-2-oxoethyl)-2-(3,6-dihydro-2H-pyran-4-yl)-5-ethyl-7-oxo-4,7-dihydro-[1,2,4]triazolo[1,5-a]pyrimidin-6-yl)piperazin-1-yl)-2-oxoethyl)-3-methylisothiazole-5-carboxamide]"
< 100,< 100,"CCc1c(N2CCN(C(=O)CNC(=O)N(C)Cc3ccccc3)CC2)c(=O)n2nc(C3=CCOCC3)nc2n1CC(=O)Nc1ccc(C(F)(F)F)cc1Cl [Example 189, 2-(6-(4-((Benzyl(methyl)carbamoyl)glycyl)piperazin-1-yl)-2-(3,6-dihydro-2H-pyran-4-yl)-5-ethyl-7-oxo-[1,2,4]triazolo[1,5-a]pyrimidin-4(7H)-yl)-N-(2-chloro-4-(trifluoromethyl)phenyl)acetamide]"
< 100,< 100,"CCc1c(N2CCN(C(=O)CNC(=O)c3ncco3)CC2)c(=O)n2nc(N3CCOCC3)nc2n1CC(=O)Nc1ccc(C(F)(F)F)cc1Cl [Example 249, N-(2-(4-(4-(2-((2-Chloro-4-(trifluoromethyl)phenyl)amino)-2-oxoethyl)-5-ethyl-2-morpholino-7-oxo-4,7-dihydro-[1,2,4]triazolo[1,5-a]pyrimidin-6-yl)piperazin-1-yl)-2-oxoethyl)oxazole-2-carboxamide]"
< 100,< 100,"CCc1c(N2CCN(C(=O)C(=O)NOC)CC2)c(=O)n2nc(C3=CCOCC3)nc2n1CC(=O)Nc1ccc(C(F)(F)F)cc1Cl [Example 330, 2-(4-(4-(2-((2-Chloro-4-(trifluoromethyl)phenyl)amino)-2-oxoethyl)-2-(3,6-dihydro-2H-pyran-4-yl)-5-ethyl-7-oxo-4,7-dihydro-[1,2,4]triazolo[1,5-a]pyrimidin-6-yl)piperazin-1-yl)-N-methoxy-2-oxoacetamide]"
